Measured values taken from PubChem BioAssay AID248 (DTP/NCI, 2004).
“And” between values parts separate entries of the source, which are not always exact repeats. Equal values may be shown once. Toxic doses and inconclusive results are not listed.

System: L1210 leukemia ip in BDF1 mice, survival T/C
Assay: NCI In Vivo Anticancer Drug Screen. Data for tumor model L1210 Leukemia (intraperitoneal) in B6D2F1 (BDF1) mice
Conditions: endpoint: mean survival time, higher = longer survival
Method in brief: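 Antitumor effect is assessed in tumor-bearing animals. Survival in the compound arm is compared with a vehicle-dosed control arm and expressed as their quotient.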

[1] = dose: 100.0 mg/kg/injection, schedule: Q01DX001 (ip), vehicle: saline
[2] = dose: 100.0 mg/kg/injection, schedule: Q01DX001 (ip), vehicle: water
[3] = dose: 100.0 mg/kg/injection, schedule: Q01DX009 (ip), vehicle: water
[4] = dose: 200.0 mg/kg/injection, schedule: Q01DX001 (ip), vehicle: water
[5] = dose: 400.0 mg/kg/injection, schedule: Q01DX001 (ip), vehicle: water
[6] = dose: 100.0 mg/kg/injection, schedule: Q01DX009 (ip), vehicle: Klucel (hydroxypropylcellulose) (HPC)
[7] = dose: 200.0 mg/kg/injection, schedule: Q01DX009 (ip), vehicle: Klucel (hydroxypropylcellulose) (HPC)
[8] = dose: 400.0 mg/kg/injection, schedule: Q01DX009 (ip), vehicle: Klucel (hydroxypropylcellulose) (HPC)

COc1cc(NS(C)(=O)=O)ccc1Nc1c2cccc(C)c2nc2c(C)cccc12
T/C (dose: 6.25 mg/kg/injection, schedule: Q01DX009 (ip), vehicle: saline): 117 % of control | T/C (dose: 6.25 mg/kg/injection, schedule: Q01DX009 (sc), vehicle: Klucel (hydroxypropylcellulose) (HPC)): 103 % of control | T/C (dose: 12.5 mg/kg/injection, schedule: Q01DX009 (ip), vehicle: water): 170 % of control | T/C (dose: 12.5 mg/kg/injection, schedule: Q01DX009 (sc), vehicle: Klucel (hydroxypropylcellulose) (HPC)): 104 % of control | T/C (dose: 25.0 mg/kg/injection, schedule: Q01DX009 (ip), vehicle: saline): 175 % of control | T/C (dose: 25.0 mg/kg/injection, schedule: Q01DX009 (ip), vehicle: water): 201 % of control | T/C (dose: 25.0 mg/kg/injection, schedule: Q01DX009 (sc), vehicle: Klucel (hydroxypropylcellulose) (HPC)): 112 % of control | T/C (dose: 50.0 mg/kg/injection, schedule: Q01DX001 (ip), vehicle: saline): 115 % of control | T/C (dose: 50.0 mg/kg/injection, schedule: Q01DX001 (ip), vehicle: water): 167 % of control | T/C (dose: 50.0 mg/kg/injection, schedule: Q01DX009 (ip), vehicle: saline): 166 % of control | T/C (dose: 50.0 mg/kg/injection, schedule: Q01DX009 (sc), vehicle: Klucel (hydroxypropylcellulose) (HPC)): 111 % of control | T/C [1]: 115 % of control | T/C [2]: 213 % of control | T/C [3]: 107 % of control | T/C [4]: 224 % of control | T/C [5]: 102 % of control

COC(=O)CN1C(c2ccccc2)=CS(=O)(=O)C=C1c1ccccc1
T/C [1]: 101 % of control | T/C (dose: 200.0 mg/kg/injection, schedule: Q01DX001 (ip), vehicle: saline): 97 % of control | T/C (dose: 400.0 mg/kg/injection, schedule: Q01DX001 (ip), vehicle: saline): 93 % of control

Cc1ccc(OS(=O)(=O)c2ccc([N+](=O)[O-])cc2)cc1
T/C [6]: 97 % of control | T/C (dose: 100.0 mg/kg/injection, schedule: Q04DX003 (ip), vehicle: Klucel (hydroxypropylcellulose) (HPC)): 97 % of control | T/C [7]: 96 % of control | T/C (dose: 200.0 mg/kg/injection, schedule: Q04DX003 (ip), vehicle: Klucel (hydroxypropylcellulose) (HPC)): 101 % of control | T/C [8]: 95 % of control | T/C (dose: 400.0 mg/kg/injection, schedule: Q04DX003 (ip), vehicle: Klucel (hydroxypropylcellulose) (HPC)): 100 % of control

CC(C)CCCC(C)C1CCC2C3CC=C4CC(O)CCC4(C)C3CCC12C (centres undefined) (tested in a mixture with another compound)
T/C (dose: 50.0 mg/kg/injection, schedule: Q01DX009 (ip), vehicle: water): 94 % of control | T/C [2]: 102 % of control and 108 % of control | T/C [3]: 102 % of control | T/C (dose: 100.0 mg/kg/injection, schedule: Q04DX003 (ip), vehicle: water): 90 % of control | T/C [4]: 105 % of control | T/C (dose: 200.0 mg/kg/injection, schedule: Q01DX009 (ip), vehicle: water): 103 % of control | T/C (dose: 200.0 mg/kg/injection, schedule: Q04DX003 (ip), vehicle: water): 88 % of control | T/C [5]: 105 % of control | T/C (dose: 400.0 mg/kg/injection, schedule: Q04DX003 (ip), vehicle: water): 87 % of control

CC1CCCC(C)N1CC(O)c1ccccc1 (centres undefined)
T/C (dose: 6.25 mg/kg/injection, schedule: Q04DX003 (ip), vehicle: saline with Tween-80): 94 % of control | T/C (dose: 12.5 mg/kg/injection, schedule: Q04DX003 (ip), vehicle: saline with Tween-80): 97 % of control | T/C (dose: 25.0 mg/kg/injection, schedule: Q04DX003 (ip), vehicle: saline with Tween-80): 97 % of control

COc1ccc2c(c1OC)C1(CCN(C)C)CC(O)CCC1C=C2 (centres undefined)
T/C (dose: 100.0 mg/kg/injection, schedule: Q04DX003 (ip), vehicle: saline): 102 % of control | T/C (dose: 200.0 mg/kg/injection, schedule: Q04DX003 (ip), vehicle: saline): 102 % of control

Cc1cccc(Cl)c1NC(=O)Nc1cccc(C(=O)O)c1
T/C (dose: 25.0 mg/kg/injection, schedule: Q01DX009 (ip), vehicle: Klucel (hydroxypropylcellulose) (HPC)): 100 % of control | T/C (dose: 50.0 mg/kg/injection, schedule: Q01DX009 (ip), vehicle: Klucel (hydroxypropylcellulose) (HPC)): 87 % of control | T/C [6]: 90 % of control | T/C [7]: 86 % of control | T/C [8]: 91 % of control
